Among the data in patent US6033823A, “Mutated penicillin G acylase genes” (priority 1994, dated 2000) are Ki values, retold here.

Common to all, as to format: biochemical
Settings in all cases: from progress curves of NIPAB deacylation, 25° C., 0.1 M NaH2PO4.H2O buffer pH 7.5, read-out: Ki Phenylacetic acid (inhibition constant, dissociation constant)

The target in assay [1] is T1, Alcaligenes faecalis Penicillin G acylase mutant B:I177V (Alcaligenes faecalis, UniProt O34142, I442V).
T1 construct: alpha 202 aa, beta 551 aa; recombinant, E. coli host
T1 sequence (O34142 27-228): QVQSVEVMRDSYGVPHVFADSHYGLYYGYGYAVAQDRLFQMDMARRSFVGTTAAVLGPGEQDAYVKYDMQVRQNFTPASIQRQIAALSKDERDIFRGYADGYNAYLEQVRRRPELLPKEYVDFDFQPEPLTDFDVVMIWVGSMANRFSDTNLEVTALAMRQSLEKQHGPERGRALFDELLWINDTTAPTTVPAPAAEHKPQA
T1 sequence (O34142 266-816 I442V): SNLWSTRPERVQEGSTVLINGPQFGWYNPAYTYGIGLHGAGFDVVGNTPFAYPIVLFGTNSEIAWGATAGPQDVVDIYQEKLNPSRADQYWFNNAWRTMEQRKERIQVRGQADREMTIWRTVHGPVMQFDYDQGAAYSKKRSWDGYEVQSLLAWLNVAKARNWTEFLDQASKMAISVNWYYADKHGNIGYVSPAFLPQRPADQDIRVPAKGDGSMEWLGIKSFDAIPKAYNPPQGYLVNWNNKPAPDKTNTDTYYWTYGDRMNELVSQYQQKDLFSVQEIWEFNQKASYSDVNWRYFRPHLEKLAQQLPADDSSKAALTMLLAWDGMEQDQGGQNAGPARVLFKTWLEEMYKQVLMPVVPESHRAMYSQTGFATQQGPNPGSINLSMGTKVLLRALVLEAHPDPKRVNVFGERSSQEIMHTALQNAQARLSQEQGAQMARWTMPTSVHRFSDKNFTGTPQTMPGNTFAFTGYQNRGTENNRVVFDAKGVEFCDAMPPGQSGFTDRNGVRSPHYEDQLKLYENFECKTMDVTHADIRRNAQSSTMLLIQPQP
Kind of assay: NIPAB kinetics and phenylacetic acid product inhibition, mutant B:I177V. As for the experimental part: (§1) In a continuous assay Penicillin G acylase was assayed spectro-fotometrically with the chromogenic substrate NIPAB [6-nitro-3-phenylacetamido-benzoic acid]. The liberation of 3-amino-6-nitrobenzoic acid was monitored by measuring the extinction at 405 nm in a Kontron 610 kinetic spectrofotometer. Measuring maximal rate, the assays were performed at 25° C. using 20 mM NaH2 PO4.H2 O at pH 7.5 with 20 mM NIPAB and 100 μl enzym solution (at a proper dilution). Initial rate measurements were performed with varying concentration of NIPAB.
(§2) Initial rate measurements were performed with excess substrate over the enzyme. Catalytic parameters were derived from least-squares fitting of the measured initial rates plotted for various substrate concentrations according to the Michaelis-Menten equation.
(§3) The complete conversion of NIPAB was followed as a funtion of time at 20, 50 and 100 μM NIPAB by following the increase in absorbtion at 405 nm. Products of this conversion are phenylacetic acid and 3-amino-6-nitrobenzoic acid. The conversion was performed at 25° C. in 0.1 M NaH2 PO4.H2 O buffer pH 7.5. The progress curves of the deacylation of NIPAB could be fitted very well when product inhibition by phenylacetic acid was taken into account. […]

Assay [2] deals with T2, Alcaligenes faecalis Penicillin G acylase mutant B:L56V (Alcaligenes faecalis, UniProt O34142, L321V).
T2 construct: alpha 202 aa, beta 551 aa; recombinant, E. coli host
T2 sequence (O34142 27-228): T1 sequence (O34142 27-228)
T2 sequence (O34142 266-816 L321V): T1 sequence (O34142 266-816 I442V) with L56V, V177I
Description: NIPAB kinetics and phenylacetic acid product inhibition, mutant B:L56V. As for the experimental part: as §1, §2, §3

For assay [3], the target named is T3, Alcaligenes faecalis Penicillin G acylase mutant B:L56G (Alcaligenes faecalis, UniProt O34142, L321G).
T3 construct: alpha 202 aa, beta 551 aa; recombinant, E. coli host
T3 sequence (O34142 27-228): T1 sequence (O34142 27-228)
T3 sequence (O34142 266-816 L321G): T1 sequence (O34142 266-816 I442V) with L56G, V177I
Kind of assay: NIPAB kinetics and phenylacetic acid product inhibition, mutant B:L56G. On the procedure:
as §1, §2, §3

Molecules are shown by their SMILES. Substitutions are numbered along the chain they refer to.

As to `O=C(O)Cc1ccccc1` [phenylacetic acid], the Ki (usually the equilibrium dissociation constant of an inhibitor or competing ligand from its target) in assay [1] amounted to 35 µM; in assay [2], 31 µM; in assay [3] it was 55 µM.
